This is an account of results in patent US10175228B2, “Method of using transmembrane channel-like protein 6 (TMC6) protein to identify substances affecting salty taste” (priority 2016, dated 2019).

The test system of experiment [1] is C57BL/6J mouse and knockout mice. Briefly: NaCl palatability test, two-bottle choice method. The following applies: for NaCl palatability: 96 hr.
Procedure: Thus, an NaCl palatability test was carried out by using the wild-type C57BL/6J mouse and the knockout mice obtained in Example 1.
The NaCl palatability test was carried out by the two-bottle choice method (abbreviated as “two-bottle method”) for 96 hr. That is, two 11-mL plastic bottles (water dispenser bottles) were filled with a test aqueous solution, moisture outside of the bottles was wiped out and dried, the weights thereof (the total weight of the bottle, a water dispenser tube made of stainless, and the aqueous solution, for each bottle) were measured, and the bottles were inserted into a metal lid of a breeding cage at an angle of approximately 30 degrees. […] The positions of the bottles were laterally interchanged every day. The weights of the bottles were measured every 24 hours, to calculate the reduced amounts of the aqueous solutions. Separately, four water dispenser bottles filled with deionized water were located on a vacant breeding cage, and changes of the weights were measured every day, to calculate an average value of the sum of the evaporation amount of the aqueous solution and the dropped amount of the aqueous solution due to experimental operation (approximately 0.05 g to 0.06 g). To prevent dropping of the aqueous solutions due to rocking of the lid of the breeding cage and the bottles by the mice, a transparent acryl board (10 cm×15 cm×1 cm, 180 g) was located on the bottles as a weight. The average value of the sum of the evaporation and dropped amounts of each aqueous solution was subtracted from the reduced amount of the same, and the resulting value was regarded as the intake amount of each aqueous solution. The ratio of the intake amount of the NaCl aqueous solution with respect to the total intake amount of the control aqueous solution and the NaCl aqueous solution was calculated and regarded as NaCl palatability.
Experiment [2] relates to control cells (CHO-K1 cells expressing YC2.60 gene). Briefly: Calcium imaging of control cells (CHO-K1 cells expressing YC2.60 gene only). The experiment is classed as cell-based, Chinese hamster. The following applies: control cells without TMC6, stimulation with high-concentration NaCl solution. As to the method:
(§1) CHO-K1 cells were transfected with TMC6-pcDNA3.1 or pcDNA3.1 in combination with YC2.60-pcDNA, to prepare TMC6-expressing cells (cells expressing the mouse TMC6 gene and the YC2.60 gene) and control cells (cells expressing the YC2.60 gene). The prepared cells were stimulated, and activation of the cells was measured. The procedure was as follows.
(§2) That is, first, CHO-K1 cells (ATCC) were inoculated into a culture dish having a diameter of 60 mm while adjusting the number of the cells to obtain 60% confluence, and cultured for 8 hr. As the medium, 5 mL of Ham's F-12K (Kaighn's) (Life Technologies) containing 10% fetal bovine serum (Life Technologies) was used. A 15 μL aliquot of FuGENE 6 (Promega) was added to 235 μL of Opti-MEM (Thermo Fisher Scientific), and incubated for 5 min at a room temperature. Then, 0.625 μg of TMC6-pcDNA3.1 and 2.5 μg of YC2.60-pcDNA were further added thereto, and incubated for 15 min at a room temperature. Then, the whole of the resultant mixture was dropped into the culture broth of the CHO-K1 cells, and the culture broth was mildly stirred. Then, the cells were further cultured for 18 hr under a condition of 5% CO2 at 37° C., to obtain the TMC6-expressing cells. Similarly, the control cells were obtained through transfection using pcDNA3.1 instead of TMC6-pcDNA3.1.
After the cultivation, the culture broth was removed. […]

The target in a further experiment is T1, mouse TMC6 protein (Mus musculus, UniProt Q7TN60, A788T).
T1 construct: expressed in transfected cells; host or cells: CHO-K1
T1 sequence (Q7TN60 1-810 A788T): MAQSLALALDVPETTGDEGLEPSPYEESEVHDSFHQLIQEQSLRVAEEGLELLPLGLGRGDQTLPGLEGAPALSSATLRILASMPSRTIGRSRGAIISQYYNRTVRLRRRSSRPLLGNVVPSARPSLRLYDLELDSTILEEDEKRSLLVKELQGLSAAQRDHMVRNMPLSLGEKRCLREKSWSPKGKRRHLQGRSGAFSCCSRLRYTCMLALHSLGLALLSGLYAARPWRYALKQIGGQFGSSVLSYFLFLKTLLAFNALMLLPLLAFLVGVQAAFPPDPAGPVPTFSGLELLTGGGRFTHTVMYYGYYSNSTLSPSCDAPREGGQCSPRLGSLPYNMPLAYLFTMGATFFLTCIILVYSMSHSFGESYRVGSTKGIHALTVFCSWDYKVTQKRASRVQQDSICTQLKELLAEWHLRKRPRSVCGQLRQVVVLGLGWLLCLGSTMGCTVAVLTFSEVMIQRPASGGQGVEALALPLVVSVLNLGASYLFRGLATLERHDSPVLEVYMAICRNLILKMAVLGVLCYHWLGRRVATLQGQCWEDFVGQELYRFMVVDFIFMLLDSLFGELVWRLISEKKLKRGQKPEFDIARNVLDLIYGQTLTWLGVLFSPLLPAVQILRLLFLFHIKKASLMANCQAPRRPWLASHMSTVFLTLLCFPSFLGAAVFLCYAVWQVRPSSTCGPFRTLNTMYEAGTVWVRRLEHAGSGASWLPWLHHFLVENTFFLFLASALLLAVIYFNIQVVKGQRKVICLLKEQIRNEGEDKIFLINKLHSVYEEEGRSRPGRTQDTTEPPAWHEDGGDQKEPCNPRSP
In words: Calcium imaging (YC2.60 FRET) of CHO-K1 cells expressing the mouse TMC6 gene. The class given is cell-based. As to the method: as §1, §2
After the cultivation, the culture broth was removed. A low-concentration NaCl solution (27 mM NaCl, 1 mM KCl, 0.4 mM CaCl2, 0.2 mM MgCl2, 2 mM Hepes (pH7.3), 1 mM NaHCO3, 2 mM glucose, 2 mM sodium pyruvate, and 112 mM NMDG-Cl) was added to the culture dish, incubation was carried out statically for 5 min, and then, stimulation and observation of cells were started. First, the low-concentration NaCl solution was perfused for approximately 80 sec, to provide a ground state. Then, a high-concentration NaCl solution (135 mM NaCl, 1 mM KCl, 0.4 mM CaCl2, 0.2 mM MgCl2, 2 mM Hepes (pH7.3), 1 mM NaHCO3, 2 mM glucose, and 2 mM sodium pyruvate) was perfused instead of the low-concentration NaCl solution for approximately 60 sec, to stimulate the cells. […]

With `[Cl-].[Na+]` [NaCl, sodium chloride], the NaCl palatability result in experiment [1] (hetero knockout mouse of the TMC6 gene (Tmc6 +/−), 100 mM NaCl + 30 μM amiloride) is “high”; in experiment [1] (homo knockout mouse of the TMC3 gene (Tmc3 −/−), 100 mM NaCl + 30 μM amiloride), “high”; in experiment [1] (homo knockout mouse of the TMC6 gene (Tmc6 −/−), 100 mM NaCl + 30 μM amiloride, compared with the other subject mice (P<0.05 or P<0.01)), “remarkably reduced”; in experiment [1] (homo knockout mouse of the TMC8 gene (Tmc8 −/−), 100 mM NaCl + 30 μM amiloride), “high”; in experiment [1] (wild-type C57BL/6J mouse, 100 mM NaCl, in the presence of 30 μM amiloride) it was “remarkable and high”. The “palatability for a NaCl aqueous solution” value in experiment [1] (wild-type C57BL/6J mouse fed D12450B (0.1% sodium), without amiloride) is “slightly higher than that for water”. Moreover, in experiment [2], the “change of YFP/CFP value (intracellular calcium concentration)” value is “not observed an increase”. Moreover, the “relative FRET value (YFP/CFP) of the ROI-1 cell” value at mouse TMC6 protein (one typical TMC6-expressing cell, stimulation with high-concentration NaCl solution (135 mM NaCl), FIG. 13C) is given as “approximately 1.2”. Moreover, the “change of YFP/CFP value (intracellular calcium concentration, cell activation)” value at mouse TMC6 protein (stimulation with high-concentration NaCl solution (135 mM NaCl) for approx. 60 sec after 27 mM NaCl ground state) is “increase”.
